Test results as given in the CheMixHub viscosity set.

Assay: xn = mol fraction of the nth substance listed
Conditions: 101 kPa

CCNc1ccccc1 + CCCCCCCCO
viscosity [mPa·s]
Conditions | 303.15 K | 308.15 K | 313.15 K
x1 = 0.0802 | 5.589 | 4.869 | 3.822
x1 = 0.1625 | 5.024 | 4.381 | 3.478
x1 = 0.2541 | 4.463 | 3.898 | 3.134
x1 = 0.3514 | 3.937 | 3.445 | 2.808
x1 = 0.4421 | 3.504 | 3.071 | 2.537
x1 = 0.5012 | 3.248 | 2.851 | 2.375
x1 = 0.5741 | 2.96 | 2.601 | 2.19
x1 = 0.6214 | 2.787 | 2.451 | 2.078
x1 = 0.6952 | 2.538 | 2.235 | 1.915
x1 = 0.7412 | 2.395 | 2.112 | 1.822
x1 = 0.7954 | 2.238 | 1.975 | 1.717
x1 = 0.8412 | 2.114 | 1.867 | 1.635
x1 = 0.8921 | 1.984 | 1.756 | 1.549

CCNc1ccccc1 + CCCCCCCO
viscosity [mPa·s]
Conditions | 303.15 K | 308.15 K | 313.15 K
x1 = 0.0812 | 4.393 | 4.271 | 4.154
x1 = 0.1589 | 4.051 | 3.907 | 3.774
x1 = 0.2456 | 3.705 | 3.541 | 3.394
x1 = 0.3612 | 3.288 | 3.108 | 2.948
x1 = 0.4304 | 3.063 | 2.875 | 2.711
x1 = 0.5023 | 2.847 | 2.653 | 2.486
x1 = 0.5744 | 2.646 | 2.449 | 2.278
x1 = 0.6415 | 2.474 | 2.273 | 2.103
x1 = 0.7125 | 2.304 | 2.102 | 1.932
x1 = 0.7754 | 2.166 | 1.963 | 1.794
x1 = 0.8214 | 2.071 | 1.867 | 1.7
x1 = 0.8741 | 1.966 | 1.765 | 1.6
x1 = 0.9214 | 1.878 | 1.678 | 1.516
